Test [1] relates to Hs68 cells. Nature of the test: Proliferation of Hs68 cells (MTT, OD570 converted to cell number). The format is cell-based, Human. The settings on record: 24 hours. The method, then: (§1) • 2. Human foreskin fibroblast cell line Hs68 was purchased from the Bioresource Collection and Research Center of the Food Industry Research and Development Institute (BCRC of FIRDI, Taiwan). Hs68 cells were grown in a 10-cm Petri dish containing Dulbecco's Modified Eagle's Medium (DMEM) (Thermo Fisher Scientific) supplemented with 10% fetal bovine serum (FBS). The Hs68 cells were cultivated in an incubator with culture conditions set at 37° C. and 5% CO2. Medium change was performed every two to three days. Cell passage was performed when the cultured cells reached 80%-90% of confluence. • 3.
Hs68 cells were divided into 3 groups, including one control group and two experimental groups (i.e., experimental groups L and B). Each group of the Hs68 cells was incubated in a respective well of a 96-well culture plate containing 200 μL of DMEM at 1×10^4 cells/well, followed by cultivation in an incubator (37° C., 5% CO2) for 24 hours. […] The cell culture of the control group received no treatment.
After cultivation in an incubator (37° C., 5% CO2) for 24 hours, the respective resultant cell culture was stained with 3-(4,5-Dimethylthiazol-2-yl)-2,5-diphenyltetrazolium bromide (MTT), followed by subjecting the stained cells to determination of absorbance at a wavelength of 570 nm by a spectrophotometer. The OD570 values obtained were subsequently converted to cell numbers based on a correlation curve previously prepared by plotting different known cell numbers of Hs68 cells versus their OD570 values.
(§2) Hs68 cells were divided into 28 groups, including fourteen comparative groups (i.e., comparative groups 1 L to 7 L and 1H to 7H) and fourteen experimental groups (i.e., experimental groups 1 L to 7 L and 1B to 7B). Each group of the Hs68 cells was incubated in a respective well of a 96-well culture plate containing 200 μL of DMEM at 1×10^4 cells/well, followed by cultivation in an incubator (37° C., 5% CO2) for 24 hours.
After cultivation in an incubator (37° C., 5% CO2) for 24 hours, the cell number of each group was determined according to the method described in section C of this example. The fold increase of viable cells was calculated using the following Equation (II): C=D/E (II) where C=fold increase of viable cells • D=cell number of respective experimental group or comparative group • E=cell number of corresponding comparative group 1 L, 2 L, 3 L, 4 L, 5 L, 6 L, or 7 L

The subject of test [2] is Hs68 cells. Kind of test: TGF-β content of Hs68 cells (ELISA). The test is classed as cell-based, Human. The settings on record: 24 hours. On the procedure:
as §1
General Procedures: • 1. Determination of transforming growth factor-β (TGF-β) content
The TGF-β content was determined using an enzyme-linked immunosorbent assay (ELISA) kit (Cat. No. 559119, BD Biosciences) in accordance with the manufacturer's instructions.
Hs68 cells were divided into 25 groups, including one control group, twelve comparative groups (i.e., comparative groups L-1 to L-6 and B-1 to B-6), and twelve experimental groups (i.e., experimental groups L-1 to L-6 and B-1 to B-6). Each group of the Hs68 cells was incubated in a respective well of a 96-well culture plate containing 200 μL of DMEM at 1×10^4 cells/well, followed by cultivation in an incubator (37° C., 5% CO2) for 24 hours. […] The cell culture of the control group received no treatment.
After cultivation in an incubator (37° C., 5% CO2) for 24 hours, the respective resultant cell culture was subjected to the determination of TGF-β content according to the method described in section 1 of “General Procedures”.
as §2
(In general: In an ELISA, binding on a coated surface is turned into a signal by an enzyme label.)

Setting [3] is: nutritional component only 100 mg/L (the reference group of Equation II).
Where [4] appears, read: nutritional component only 200 mg/L, relative to 100 mg/L group.
Where [5] appears, read: nutritional component only 100 mg/L.
[6] abbreviates: nutritional component only 200 mg/L.

Results on three compounds are retold here after patent US11517597B2, “Method for improving skin condition with postbiotic extract” (CHAMBIO CO., LTD., priority 2020, dated 2022).

Turning to `O=C1O[C@H]([C@@H](O)CO)C(O)=C1O` [Vitamin C], the “Fold increase of viable Cells” value in test [1] (setting [3]) amounted to 1.0; in test [1] (setting [4]), 1.1. Moreover, the TGF-β content in test [2] (setting [5]) was found to be 52.2 pg/mL; in test [2] (setting [6]), 63.1 pg/mL.
The matching figures for Chondroitin: 1.0, 1.1, 120.5 pg/mL and 128.8 pg/mL.
On to `N[C@H]1C(O)O[C@H](CO)[C@@H](O)[C@@H]1O` (stereo partly drawn) [Glucosamine], for which the “Fold increase of viable Cells” value stood at 1.0 in test [1] (setting [3]) and 1.1 in test [1] (setting [4]). In addition, the TGF-β content worked out at 51.1 pg/mL in test [2] (setting [5]) and 61.3 pg/mL in test [2] (setting [6]).
